Laboratory results from paper PMC6960285, “Unique Microbial Catabolic Pathway for the Human Core N-Glycan Constituent Fucosyl-α-1,6-N-Acetylglucosamine-Asparagine” (mBio, 2020).

Assays:
[1] = molecular target: T1, AlfC (Lacticaseibacillus paracasei, UniProt A0A422MHI3); assay: transfucosylation, product by HPLC and NMR; assay type: biochemical; conditions: acceptor, 100 mM; donor 50 mM pNP-fuc; 100 mM Tris-HCl pH 7.0, 42°C
T1 construct: gene BN194_28780; 6xHis-AlfC from E. coli DH10B with pQEalfC, purified as earlier published
T1 sequence (A0A422MHI3 1-344): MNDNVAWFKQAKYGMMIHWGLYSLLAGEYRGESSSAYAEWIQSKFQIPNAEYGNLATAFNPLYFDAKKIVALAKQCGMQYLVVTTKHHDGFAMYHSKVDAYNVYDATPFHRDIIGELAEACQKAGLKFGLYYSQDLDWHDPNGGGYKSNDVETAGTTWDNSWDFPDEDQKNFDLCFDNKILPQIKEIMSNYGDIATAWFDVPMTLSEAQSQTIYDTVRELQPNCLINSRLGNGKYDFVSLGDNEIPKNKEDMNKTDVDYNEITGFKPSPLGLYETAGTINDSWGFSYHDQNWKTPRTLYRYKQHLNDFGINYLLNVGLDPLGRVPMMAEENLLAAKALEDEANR

[2] = molecular target: His-tagged AsnA2, N(4)-(β-N-acetylglucosaminyl)-L-asparaginase (glycosylasparaginase) of Lactobacillus casei BL23 (Lactobacillus casei BL23); assay: SEC; size exclusion chromatography of purified His-tagged AsnA2 on a HiPrep 16/60 Sephacryl S-300 HR column, calibrated with five standard proteins; native molecular weight estimated

Compound | transfucosylation, product by HPLC and NMR [1] | stoichiometry N [2]
CC(=O)N[C@@H]1[C@@H](O)[C@H](O)[C@@H](CO)O[C@H]1NC(=O)C[C@H](N)C(=O)O [GlcNAc-Asn] | the ability of AlfC to use GlcNAc-Asn as the acceptor was tested | –
His-tagged AsnA2, N(4)-(β-N-acetylglucosaminyl)-L-asparaginase (glycosylasparaginase) of Lactobacillus casei BL23 (enzyme) | – | 2
